From patent US20260034091A1, “Compositions and Methods for Treating Metabolic Disorders” (The Regents of the University of California, priority 2022, published 2026)

Experiments:
Type in all cases: in vivo, C57BL/6J male mice
[1] = system: CDAHFD mouse model of diet-induced NAFLD/NASH; test: TOFA and Semaglutide single agent and combination in CDAHFD mouse model of NAFLD/NASH
Description: Six-week-old C57BL/6J male mice were fed with a L-amino acid diet with 60 kcal % fat with 0.1% methionine and no added choline (CDAHFD; Research Diets A06071302i) for eight weeks. Mice were randomly assigned to treatment groups of either a vehicle (control), 250 mg/kg of TOFA, 5 nmol/kg of Semaglutide (Novo Nordisk), or a combined dose of 250 mg/kg TOFA plus 5 nmol/kg Semaglutide. TOFA was administered by oral gavage. Semaglutide dosing was up-titrated at beginning of treatment regimen and was delivered via subcutaneous injection at the back shoulder/neck flank. All treatments were delivered QD for an additional four weeks. Mice weights and food intake were monitored during the treatment time course. Upon study termination at 12 weeks, liver and serum samples were collected. Serum liver damage biomarkers, ALT and AST, were measured by commercially available kits (abcam105134 and Cayman 701640, respectively). Hepatic and serum triglyceride levels were measured using a commercially available kit (abcam65336). Total RNA was extracted from liver tissues (Qiagen RNeasy kit 74106), and cDNA was prepared (BioRAD iScript™ Reverse Transcription) according to manufacturer's protocols. Quantitative PCR (qPCR) was performed with fast SYBR Green Mix (ThermoFisher A25742) on the QuantStudio6 System (Applied Biosciences). Additional liver samples were fixed in 4% paraformaldehyde and embedded in paraffin blocks for sectioning and subsequently stained with hematoxylin and eosin (H&E) or Sirius Red with a fast green dye background.

[2] = system: CDAHFD induced late stage NAFLD/NASH in mice; test: In-depth investigation of rescue effect of TOFA in CDAHFD induced late stage NAFLD/NASH; details: four weeks
Description: Six-week-old C57BL/6J male mice were fed with a L-amino acid diet with 60 kcal % fat with 0.1% methionine and no added choline (CDAHFD; Research Diets A06071302i) for eight weeks. Ten subjects were randomly assigned to either a vehicle (control) treatment or a 125 mg/kg. BID, of TOFA treatment delivered by oral gavage for an additional four weeks. Mice weights were monitored during the entire treatment time course. Upon study termination at 12 weeks, serum and liver samples were collected. Serum liver damage biomarkers, ALT and AST, were measured by commercially available kits (abcam 105134 and abcam 105135, respectively). Hepatic and serum triglyceride levels were measured from a commercially available kit (abcam65336). Total RNA was extracted from liver tissues (Qiagen RNeasy kit 74106), and cDNA was prepared (BioRAD iScript™ Reverse Transcription) according to manufacturer's protocols. Quantitative PCR (qPCR) was performed with fast SYBR Green Mix (ThermoFisher A25742) on the QuantStudio6 System (Applied Biosciences).

PPAR signaling pathway = test: Transcriptional analysis of liver samples from 60% HFD mouse model of diet induced obesity
Description: Six-week old C57BL/6J male mice were fed with a 60 kcal % fat diet (Research Diets A12492i) for seven weeks before introduction of either control or 125 mg/kg, BID, initial loading dose of TOFA daily via controlled oral gavage for one week (FIG. 2A). Mice were then treated with either vehicle (control) or 62.5 mg/kg, BID, maintenance dose of TOFA daily via oral gavage for three additional weeks. Upon study termination at 11 weeks, liver samples were collected. Total RNA was extracted from liver tissues (Qiagen RNeasy kit 74106), cDNA libraries were constructed (Roche KAPA HyperPrep kit), sequenced on the NovaSeq6000 platform (Novogene), and a downstream analysis pipeline was performed. Differentially expressed genes (DEGs) were defined by at least one log2-fold change (2-fold in linear scale) with an FDR cutoff of 0.05. For validation, total RNA was used to prepare CDNA (BioRAD iScript™ Reverse Transcription) according to manufacturer's protocol and qPCR was performed with fast SYBR Green Mix (ThermoFisher A25742) on the QuantStudio6 System (Applied Biosystems).

[3] = system: 60% HFD diet-induced obesity in mice; test: Dose-dependent effect of TOFA in 60% HFD mouse model of diet-induced obesity (DIO); details: for body weight: oral
Description: Six-week-old C57BL/6J male mice were fed with a 60 kcal % fat diet (Research Diets A12492i) for ten weeks before introduction of either vehicle (control) or TOFA, at varying doses, for an additional two weeks. TOFA was orally administered in doses of either 12.5, 25, 62.5, or 125 mg/kg, BID. Mice weights and food intake were monitored during the treatment time course. Prior to harvest, mice underwent whole body composition analysis (EchoMRI™ 2012). Upon study termination at 12 weeks, serum and liver samples were collected. Hepatic and serum triglyceride and cholesterol levels were measured by commercially available kits (abcam65336 and abcam65390, respectively). Additional liver samples were fixed in 4% paraformaldehyde and embedded in paraffin blocks for sectioning and subsequently stained with hematoxylin and eosin (H&E).

[4] = four weeks, TOFA 250 mg/kg oral QD, Semaglutide 5 nmol/kg s.c. QD
[5] = 125 mg/kg BID 1 week then 62.5 mg/kg BID 3 weeks, oral gavage
[6] = 12.5, 25, 62.5, or 125 mg/kg, BID, two weeks

In the case of `CCCCCCCCCCCCCCOc1ccc(C(=O)O)o1` [TOFA, 5-(Tetradecyloxy)-2-furoic acid], the food intake ([1]; four weeks treatment) is reported as “not due to changes in food intake”, the “body weight at the end of the treatment time course” value [1, 4] is reported as “smaller degree of weight loss compared to Semaglutide treated mice” and the “inflammation genes (RT-qPCR of liver samples)” value [1, 4] is reported as “specific response of TOFA in addressing inflammation”. The “mRNA levels of genes involved in collagen biosynthesis (RT-qPCR)” value [1, 4] was “strong repressive effectives”, the “serum ALT levels” value [1, 4] was “moderate reductions” and the “serum AST levels” value [1, 4] was “only group to have demonstrated reduction”. The “fibrotic content (Sirius red staining)” value ([1]; four weeks, liver sections) was “aforementioned histological trends are noted”, the “steatosis (H&E liver sections)” value ([1]; four weeks, relative to control) was “greater reduction in steatosis” and the liver triglyceride levels ([1]; four weeks, relative to vehicle control) was “stronger, significant reduction”. For the same compound, the “hepatic hydrogen peroxide levels” value ([2]; 125 mg/kg BID oral gavage) was “decrease”, the liver triglyceride levels ([2]; 125 mg/kg BID oral gavage) was “significant decrease” and the “serum ALT” value ([2]; 125 mg/kg BID oral gavage) was “trending decreases”. For the same compound, the “serum AST” value ([2]; 125 mg/kg BID oral gavage) was “trending decreases”, the body weight ([2]; 125 mg/kg BID oral gavage, vs vehicle) was “significant decrease” and the “expression of genes involved in collagen biosynthesis by qPCR” value ([2]; liver mRNA, 125 mg/kg BID) was “decreased”. For the same compound, the “expression of inflammation genes (Il1b, Tnfa) by RT-qPCR” value ([2]; liver mRNA, 125 mg/kg BID) was “decrease in expression”, the “genes with PPAR regulatory elements (beta-oxidation, lipogenesis) by RT-qPCR” value ([2]; liver mRNA, 125 mg/kg BID) was “upregulated” and the “genes in the PPAR signaling pathway (BioPlanet 2019 database)” value (PPAR signaling pathway; [5]) was “upregulated various genes under PPAR transcriptional control”. For the same compound, the “highest upregulated genes (RNAseq of liver)” value (PPAR signaling pathway; [5]) was “canonical PPAR-alpha target genes”, the “transcriptional regulatory relationship analysis of upregulated genes (TRRUST Transcription Factors 2019)” value (PPAR signaling pathway; [5]) was “PPARA is one of the major acting factors in transcriptional regulation” and the “downstream PPAR target genes by RT-qPCR (fatty acid beta-oxidation, acyl-CoA processing, lipoprotein uptake and metabolism)” value (PPAR signaling pathway; liver mRNA relative to r18s mRNA) was “upregulated”. The food intake [3, 6] was “remained constant”, the “hepatic steatosis (H&E liver sections)” value [3, 6] was “improvement in hepatic steatosis in a dose-dependent manner” and the “serum cholesterol levels (HDL and VLDL/LDL fractions)” value [3, 6] was “dose-dependent decrease”. For the same compound, the serum triglyceride levels [3, 6] was “dose-dependent decrease”, the “overall lean mass (EchoMRI)” value ([3]; all treatment groups) was “no changes” and the body weight ([3]; highest dose 125 mg/kg, BID, two weeks) was “weight loss”. The “fat mass as a percentage of body weight (EchoMRI)” value ([3]; highest dose treatment group (125 mg/kg, BID)) was “decrease in fat mass as a percentage of body weight”, the liver triglyceride levels ([3]; highest dosing treatment regimens) was “striking decreases” and the body weight ([3]; lower doses (12.5, 25, 62.5 mg/kg, BID), two weeks) was “smaller or negligible changes in body weight”.
